Reference: patent US20100204161A1, “Substances and Pharmaceutical Compositions for the Inhibition of Glyoxalases and Their Use Against Bacteria” (BIOMAC PRIVATINSTITUT FUR MEDIZINISHE UND ZAHMEDIZ …, priority 2005, published 2010)

Columns and labels:
[1] = system: different microbial species: Candida spp., Escherichia coli, Klebsiella oxytoca, Pseudomonas aeruginosa, Enterococcus faecalis, Enterococcus faecium, MRSA …; assay: Agar dilution antimicrobial susceptibility test, aerobic conditions; conditions: 12.5 mM to 40 mM in agar, 37° C., 20 hours, 21 strains incl. ESBL and MRSA, FIG. 8
Experimental: The agar dilution method was used for antimicrobial susceptibility test. A series of plates (petri dishes; Greiner, Cat No. 933161) were prepared with 20 ml agar medium (Iso-Sensitest-Agar Ca. No. CM474, OXOID, Germany) to which various concentrations of EP (12.5 mM to 40 mM) were added. Control agar plates were prepared without EP. The plates are then inoculated with a suitable-standardized suspension of the test microbial species (10^4 cfu) using an automated spotter (spots 1-21). The agar plates were incubated under aerobic conditions at 37° C. for 20 hours. At the respective positions of the spots growth (if permissive under the selected conditions) will result in the formation of cell discs. The evaluation of the test results is performed by inspecting the sizes of these discs. […]

[2] = biological target: T1, glyoxalase II of human erythrocytes (Homo sapiens, UniProt Q16775); assay: Enzymatic activity of human erythrocyte glyoxalase II (erythrocyte hemolysate); assay type: biochemical; conditions: 0-20 mM; FIG. 6
T1 construct: from tissue; host or cells: human erythrocyte hemolysate
Experimental: The determination of erythrocyte glyoxalase II (E.C.3.1.2.6., hydroxyacyl glutathione hydrolase) was performed according to the instructions of McLellan and Thornalley (1989). The principle is based on determining the initial hydrolysis of S-D-lactoyl-glutathione (L 7140, Sigma-Aldrich Chemie GmbH) in the presence of low amounts of a cell extract. Hydrolysis is observed on the basis of the reduction of the extinction at 240 nm (e=−3.1 mM-1 cm-1). Glyoxalase II activity (IU) correlates to the amount of enzyme hydrolysing 1 μmol of S-D-lactoyl-glutathione/min. The measurement was performed in 100 mM Tris-HCl buffer, pH 7.4. For this purpose 0.4 mM S-D-lactoyl-glutathione was added to 1 ml of the measuring reagent and the reaction was started by addition of suitable amounts (5-100 μl) of an erythrocyte hemolysate. The erythrocyte lysate was prepared according to the instructions of Mannervik et al. (1982).
Determination of glyoxalase II activity was performed according to the general protocol as described above. The influence of ethyl pyruvate on the activity of the enzyme was investigated by addition of increasing concentrations of EP (Sigma, no. E 4, 780-8; lot. S18972-513) (0-20 mM) to the measuring reagent.

[3] = system: biofilms (biofilm-forming microorganisms from pipe water); assay: Destruction of biofilms on contaminated silicone surfaces (colony forming units); assay type: cell-based; conditions: for Colony forming units derivable from biofilms after treatment: normalized to 1 cm2 inner tube surface
Experimental: Biofilms were allowed to generate in a silicon tube system according to Gebel et al. (2005). In short, pipe water from a public water distributor was used as the source of biofilm-forming microorganisms. Water flow was at about 20 l per hour through silicon tubes from two commercial suppliers with inner diameters of 4 mm for 30 days at 25° C. After that the tubes were emptied, sealed at both ends and treated on their outer surface with 0.2% peroxoacetic acid for 1 hour. Tubes were then rinsed with sterile water and afterwards cut into pieces of 5 cm length each using a sterile scalpel. Pieces obtained this way were then dipped into solutions which contained the substance to be tested or respective controls. 25 ml of the test solutions were used in closed Falcon tubes (50 ml). […] Tubes were opened over their full length with scissors and the material deposited at the original inner surfaces of the tubes homogenized in 10 ml of saline (9 g NaCl/l water). Dilutions were made (decimal steps to 10^4) and 0.1 ml of these solutions plated onto test agar plates (1 l contained 0.5 g yeast extract, 0.5 g peptone, 0.5 g casein hydrolysate, 0.5 g starch. 0.3 g potassium hydrogen phosphate, 24 mg magnesium sulphate, 0.3 g sodium pyruvate, 15 g agar). Plates were incubated for seven days at 20° C. Colonies which formed were counted on each plate independent of their appearance and color. […] Two dilutions must be consistent in colony numbers, taken into consideration the respective dilution factors. Numbers were normalized to 1 cm2 of the inner tube surface. Each substance was analysed in duplicates. Biofilms were treated with water (control), ethyl pyruvate […] Numbers are given for each of the different silicon tubes used.

[4] = biological target: T2, glyoxalase I of human erythrocytes (Homo sapiens, UniProt Q04760); assay: Enzymatic activity of human erythrocyte glyoxalase I (erythrocyte lysate); assay type: biochemical; conditions: 0-50 mM; FIG. 5
T2 construct: from tissue; host or cells: human erythrocyte lysate
T2 sequence (Q04760 2-184 limits assumed): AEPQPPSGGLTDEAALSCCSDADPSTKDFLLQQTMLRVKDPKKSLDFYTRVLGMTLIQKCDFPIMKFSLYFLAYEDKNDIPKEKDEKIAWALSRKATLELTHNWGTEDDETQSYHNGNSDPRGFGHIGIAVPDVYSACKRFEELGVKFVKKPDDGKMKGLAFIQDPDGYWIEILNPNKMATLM
Experimental: The determination of glyoxalase I was performed as described above for the yeast enzyme. After the formation of the hemithioacetal, suitable amounts (5 to 100 μl) of an erythrocyte lysate were added to 1 ml of the measuring reagent to start the reaction. The erythrocyte lysate was prepared according to the instructions of Mannervik et al. (1982).
Glyoxalase activity (IU) corresponds to the amount of enzyme forming 1 μmol of S-D-lactoyl-glutathione/min.
Determination of glyoxalase I activity was performed according to the general protocol as described above. The influence of ethyl pyruvate on enzyme activity was investigated by addition of increasing concentrations of EP (Sigma; no. E4, 780-8; lot. S18972-513) (0-50 mM) to the measuring reagent.

CCOC(=O)C(C)=O [Ethyl pyruvate]
Effect on growth of different microbial species [1]: effectively inhibits the growth and proliferation of different microbial species
Inhibition of the enzymatic activity of glyoxalase II of human erythrocytes [2]: inhibits the reaction of glyoxalase II in a concentration dependent manner
Colony forming units derivable from biofilms after treatment ([3]; 10 mM, 30 min, first silicon tube): 4.9 × 10^3 colony forming units
Colony forming units derivable from biofilms after treatment ([3]; 10 mM, 30 min, second silicon tube): 5.2 × 10^3 colony forming units
Colony forming units derivable from biofilms after treatment ([3]; 10 mM, 120 min, first silicon tube): 1.6 × 10^3 colony forming units
Colony forming units derivable from biofilms after treatment ([3]; 10 mM, 120 min, second silicon tube): 1.7 × 10^3 colony forming units
Colony forming units derivable from biofilms after treatment ([3]; 25 mM, 30 min, first silicon tube): 4.4 × 10^2 colony forming units
Colony forming units derivable from biofilms after treatment ([3]; 25 mM, 30 min, second silicon tube): 4.2 × 10^2 colony forming units
Colony forming units derivable from biofilms after treatment ([3]; 25 mM, 120 min, first silicon tube): <10^2 colony forming units
Colony forming units derivable from biofilms after treatment ([3]; 25 mM, 120 min, second silicon tube): <10^2 colony forming units
number of colony forming units after treatment of biofilm ([3]; 25 mM, decreases from about 10^7, Table 5): < 10^2 colony forming units
Effectiveness against biofilms compared to peroxoacetic acid ([3]; compared to 0.1% peroxoacetic acid): even more effective compared to a common disinfectant
Inhibition of the enzymatic activity of glyoxalase I of human erythrocytes [4]: inhibits the reaction of glyoxalase I of human erythrocytes in a concentration dependent manner
